Data from patent US6506779B1, “Acetylene derivatives as anti-inflammatory/analgesic agents” (Pfizer Inc., priority 1999, dated 2003).

Compound	melting point
CS(=O)(=O)c1ccc(-n2nc(C(F)(F)F)cc2-c2ccc(C#Cc3ccccc3)cc2)cc1 [Example 15, 1-[4-(Methylsulfonyl)Phenyl]-5-[4-(Phenylethynyl)Phenyl]-3-Trifluoromethyl-1H-Pyrazole]	170 to 172 °C
CCCCC#Cc1ccc(-c2cc(C(F)(F)F)nn2-c2ccc(S(C)(=O)=O)cc2)cc1 [Example 16, 5-[4-(1-Hexyn-1-yl)Phenyl]-1-[4-(Methylsulfonyl)Phenyl]-3-Trifluoromethyl-1H-Pyrazole]	96 to 98 °C
CS(=O)(=O)c1ccc(-n2nc(C(F)(F)F)cc2-c2ccc(C#CCCCO)cc2)cc1 [Example 17, 5-[4-(5-Hydroxy-1-Pentyn-1-yl)Phenyl]-1-[4-(Methylsulfonyl)Phenyl]-3-Trifluoromethyl-1H-Pyrazole]	87 to 90 °C
